Test results published in patent US20260265246A1 (ICAHN SCHOOL OF MEDICINE AT MOUNT SINAI, priority 2021, published 2026).
Like-named read-outs stand apart in the source and are kept apart here.

Columns and labels:
[1] = target: T1, 5HT2A receptor (Homo sapiens, UniProt P28223); test: cell-based; design: expressed in transfected cells; host or cells: HEK293T cells, transient co-transfection; conditions: for Emax: HEK-293T
[2] = target: T1, 5HT2A receptor; test: biochemical; type: binding; design: expressed in transfected cells; crude membranes
[3] = target: T1, 5HT2A receptor; test: cell-based; design: expressed in transfected cells; host or cells: HEK293T cells, transient co-transfection; conditions: for Emax: HEK-293T; remark: listed apart in the source
[4] = 5HT2A β-Arr EC50 (nM), BRET1 beta-arrestin2 recruitment, HEK293T cells
[5] = BRET1 beta-arrestin2 recruitment, HEK293T cells, normalized to 5-HT, read-out: 5HT2A β-Arr Emax (%)
[6] = 5HT2A Ki (nM), secondary radioligand binding, Ki from IC50 by Cheng-Prusoff
[7] = BRET2 Gαq dissociation, HEK293T cells, read-out: 5HT2A Gq EC50
[8] = BRET2 Gαq dissociation, HEK293T cells, normalized to 5-HT, read-out: 5HT2A Gq Emax (%)
[9] = 5HT2A β-Arr EC50 (nM), BRET1 beta-arrestin2 recruitment, HEK293T
[10] = BRET1 beta-arrestin2 recruitment, HEK293T, normalized to 5-HT, read-out: 5HT2A β-Arr Emax (%)
[11] = 5HT2A Ki (nM), secondary binding assay, Cheng-Prusoff
[12] = BRET2 Gαq dissociation, HEK293T, read-out: 5HTA Gq EC50
[13] = BRET2 Gαq dissociation, HEK293T, normalized to 5-HT, read-out: 5HTA Gq Emax (%)
[14] = BRET1 beta-arrestin2 recruitment, HEK293T cells, read-out: 5HT2A β-Arr EC50
[15] = secondary radioligand binding, Ki from IC50 by Cheng-Prusoff, read-out: 5HT2A Ki
[16] = 5HT2A Gq EC50 (nM), BRET2 Gαq dissociation, HEK293T cells
[17] = 5HTA Gq EC50 (nM), BRET2 Gαq dissociation, HEK293T
[18] = read-out: 5HT2A β-Arr Emax (%), BRET1 beta-arrestin2 recruitment, HEK293T, normalized to 5-HT
[19] = read-out: 5HTA Gq Emax (%), BRET2 Gαq dissociation, HEK293T, normalized to 5-HT

T1 sequence (P28223 whole entry): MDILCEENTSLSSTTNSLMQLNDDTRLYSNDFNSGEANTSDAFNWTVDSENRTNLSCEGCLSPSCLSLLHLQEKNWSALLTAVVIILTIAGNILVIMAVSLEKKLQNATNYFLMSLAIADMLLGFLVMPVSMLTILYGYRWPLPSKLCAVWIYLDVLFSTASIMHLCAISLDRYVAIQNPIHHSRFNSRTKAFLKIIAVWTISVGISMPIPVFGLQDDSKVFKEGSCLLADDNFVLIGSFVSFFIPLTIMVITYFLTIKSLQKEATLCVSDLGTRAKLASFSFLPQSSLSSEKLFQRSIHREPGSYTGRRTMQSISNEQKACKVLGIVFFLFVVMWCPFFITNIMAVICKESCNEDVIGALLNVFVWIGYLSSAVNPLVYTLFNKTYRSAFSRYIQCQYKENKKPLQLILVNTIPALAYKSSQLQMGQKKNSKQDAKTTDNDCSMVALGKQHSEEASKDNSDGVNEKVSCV

Compound	EC50 [1, 4] [nM]	Emax [1, 5] [%]	Ki [2, 6] [nM]	EC50 [3, 7] [nM]	Emax [3, 8] [%]	EC50 [1, 9] [nM]	Ki [2, 11] [nM]	EC50 [3, 17] [nM]	other results
CN1CCC=C(c2n[nH]c3ccc(F)cc23)C1 [Example 102, 5-fluoro-3-(1-methyl-1,2,5,6-tetrahydropyridin-3-yl)-1H-indazole]	129	79.8	246	9	84.5	–	–	–	–
CN1CC=C(c2n[nH]c3c(Cl)cccc23)C1 [Example 207, 7-chloro-3-(1-methyl-2,5-dihydro-1H-pyrrol-3-yl)-1H-indazole]	–	–	–	–	–	129	203	–	Emax [1, 10]: 47.8%; EC50 [3, 12]: 50.9 nM; Emax [3, 13]: 94.7%
CN1CCC=C(c2c[nH]c3c(Cl)cccc23)C1 [Example 44, 7-chloro-3-(1-methyl-1,2,5,6-tetrahydropyridin-3-yl)-1H-indole]	–	37.6	–	18.9	86.6	–	–	–	EC50 [1, 14]: 78.8 nM; Ki [2, 15]: 76.3 nM
Clc1cccc2c(C3=CCCNC3)n[nH]c12 [Example 89, 7-chloro-3-(1,2,5,6-tetrahydropyridin-3-yl)-1H-indazole]	–	85.1	–	11.4	93.7	–	–	–	EC50 [1, 14]: 83.5 nM; Ki [2, 15]: 85.2 nM
CCc1cccc2c(C3=CCCNC3)n[nH]c12 [Example 121, 7-ethyl-3-(1,2,5,6-tetrahydropyridin-3-yl)-1H-indazole]	–	85.7	422	20.2	103	–	–	–	EC50 [1, 14]: 75.8 nM
CN1CCC=C(c2c[nH]c3c(Cl)cc(F)cc23)C1 [Example 115, 7-chloro-5-fluoro-3-(1-methyl-1,2,5,6-tetrahydropyridin-3-yl)-1H-indole]	576	59.7	–	51.1	114	–	–	–	Ki [2, 15]: 20.8 nM
COc1cccc2[nH]cc(C3=CCCNC3)c12 [Example 18, 4-methoxy-3-(1,2,5,6-tetrahydropyridin-3-yl)-1H-indole]	–	51.8	–	3.9	96.1	–	–	–	EC50 [1, 14]: 71.2 nM; Ki [2, 15]: 50.5 nM
CCCN1CCC=C(c2n[nH]c3c(CC)cccc23)C1 [Example 237, 7-ethyl-3-(1-propyl-1,2,5,6-tetrahydropyridin-3-yl)-1H-indazole]	–	–	–	–	–	1580	389	–	Emax [1, 10]: 39.8%; EC50 [3, 12]: 33.6 nM; Emax [3, 13]: 37.7%
Cc1ccnc2[nH]cc(C3=CCCNC3)c12 [Example 9, 4-methyl-3-(1,2,5,6-tetrahydropyridin-3-yl)-1H-pyrrolo[2,3-b]pyridine]	749	72.8	8510	–	74.2	–	–	–	EC50 [3, 16]: 489 nM
CCCN1CCC=C(c2c[nH]c3c(C)c(F)ccc23)C1 [Example 162, 6-fluoro-7-methyl-3-(1-propyl-1,2,5,6-tetrahydropyridin-3-yl)-1H-indole]	–	–	–	–	–	303	1140	260	Emax [1, 10]: 23.4%; Emax [3, 13]: 80.6%
Cc1c(F)ccc2c(C34CNCC3C4)c[nH]c12 (stereo not drawn) [Example 283, 3-(3-azabicyclo[3.1.0]hexan-1-yl)-6-fluoro-7-methyl-1H-indole]	–	–	–	–	–	797	141	88.2	Emax [1, 18]: 41.5%; Emax [3, 19]: 104%
FC(F)(F)CN1CCC=C(c2n[nH]c3c(Cl)cccc23)C1 [Example 152, 7-chloro-3-(1-(2,2,2-trifluoroethyl)-1,2,5,6-tetrahydropyridin-3-yl)-1H-indazole]	–	–	–	–	–	1050	389	1570	Emax [1, 18]: 66.5%; Emax [3, 19]: 89.8%
Cc1cc(F)cc2c(C34CNCC3C4)c[nH]c12 (stereo not drawn) [Example 282, 3-(3-azabicyclo[3.1.0]hexan-1-yl)-5-fluoro-7-methyl-1H-indole]	–	–	–	–	–	1280	257	165	Emax [1, 18]: 44.8%; Emax [3, 19]: 96.8%
CCCN1CCC=C(c2c[nH]c3c(Cl)c(F)ccc23)C1 [Example 160]	–	–	–	–	–	144	151	74.5	Emax [1, 18]: 30.9%; Emax [3, 19]: 84.1%
Clc1cccc2c(C3=CCCN(Cc4ccccc4)C3)c[nH]c12 [Example 67, 3-(1-benzyl-1,2,5,6-tetrahydropyridin-3-yl)-7-chloro-1H-indole]	756	46.6	90.2	–	48.8	–	–	–	EC50 [3, 16]: 44.1 nM
CN1CCC=C(c2c[nH]c3cccc(-c4ccccc4)c23)C1 [Example 21, 3-(1-methyl-1,2,5,6-tetrahydropyridin-3-yl)-4-phenyl-1H-indole]	358	15.1	14	–	59.6	–	–	–	EC50 [3, 16]: 874 nM
COC1(c2c[nH]c3c(Cl)cccc23)CNC1 [Example 254, 7-chloro-3-(3-methoxyazetidin-3-yl)-1H-indole]	–	–	–	–	–	1460	1080	294	Emax [1, 10]: 77.6%; Emax [3, 13]: 88.3%
CN1CCC=C(c2n[nH]c3c(C#N)cccc23)C1 [Example 108, 3-(1-methyl-1,2,5,6-tetrahydropyridin-3-yl)-1H-indazole-7-carbonitrile]	494	72.5	1380	–	102	–	–	–	EC50 [3, 16]: 108 nM
N#Cc1cccc2c(C3=CCCNC3)n[nH]c12 [Example 91, 3-(1,2,5,6-tetrahydropyridin-3-yl)-1H-indazole-7-carbonitrile]	105	86	237	17.2	126	–	–	–	–
Fc1ccc2c(C34CNCC3C4)c[nH]c2c1Cl (stereo not drawn) [Example 280, 3-(3-azabicyclo[3.1.0]hexan-1-yl)-7-chloro-6-fluoro-1H-indole]	–	–	–	–	–	256	63.8	38.1	Emax [1, 18]: 55.6%; Emax [3, 19]: 81.6%
CN1CCC=C(c2n[nH]c3c(Cl)cccc23)C1 [Example 106, 7-chloro-3-(1-methyl-1,2,5,6-tetrahydropyridin-3-yl)-1H-indazole]	176	66.8	332	39.1	85.5	–	–	–	–
Clc1cc(Br)cc2c(C3CNC3)c[nH]c12 [Example 267, 3-(azetidin-3-yl)-5-bromo-7-chloro-1H-indole]	–	–	–	–	–	1050	175	949	Emax [1, 10]: 20.8%; Emax [3, 13]: 64%
Fc1cccc2c(C34CNCC3C4)n[nH]c12 (stereo not drawn) [Example 187, 3-(3-azabicyclo[3.1.0]hexan-1-yl)-7-fluoro-1H-indazole]	–	–	–	–	–	648	699	136	Emax [1, 10]: 35%; Emax [3, 13]: 71.6%
Clc1cccc2c(C34CNCC3C4)c[nH]c12 (stereo not drawn) [Example 270, 3-(3-azabicyclo[3.1.0]hexan-1-yl)-7-chloro-1H-indole]	–	–	–	–	–	822	134	–	Emax [1, 10]: 21.2%; EC50 [3, 12]: 29.8 nM; Emax [3, 13]: 93.8%
